Reference: patent US6365597B1, “4-aza steroids” (Aventis Pharmaceuticals Inc., priority 1996, dated 2002)

melting point: 237.5 to 238.5 °C
SMILES: CC12CCC3C(CC[C@H]4NC(=O)CCC34C)C1CC[C@@H]2OC1CC1 (stereo partly drawn) [MDL 103,432, 17β-Cyclopropyloxy-4-aza-5α-androstan-3-one]
